pIC50: −log10 of the molar value.

As usually defined, the pIC50 is the negative decadic logarithm of the IC50, by convention in mol/L.

The assay deals with type III protein secretion system of P. aeruginosa PA103 (ExoU secretion). Put plainly: Tertiary assay: Type III-dependent secretion of ExoU by P. aeruginosa PA103. The note with it: Pseudomonas aeruginosa; for pIC50: ExoU secreted into extracellular medium; for inhibition at 100 µM: ExoU Conc 100 μM, read-out: ExoU % Inh. The assay is classed as cell-based. The text has this:
Tertiary assay: inhibition of Type III protein secretion of effectors from a Pseudomonas aeruginosa system. Type III protein secretion is used by P. aeruginosa to secrete several essential virulence determinants. One effector of the type III protein secretion system of P. aeruginosa PA103 is the virulence determinants ExoU.
The amount of Type III-dependent secretion of ExoU by P. aeruginosa PA103 can be determined in a cell-based assay by quantification of the 73.9 kDa ExoU protein scereted into the extracellular medium. Such quantitation can be achieved by growing strain PA103 in a deferrated medium in the presence of nitrilotriacetic acid (an inducer of Type III protein secretion in P. aeruginosa) and either in the presence or absence of putative inhibitors. After a prolonged growth period, the cells are sedimented and the supernatants concentrated by ammonium sulfate precipitation. The proteins in the resuspended pellets are separated by electrophoresis on SDS-polyacrylamide gels. After staining gels with Colloidal Blue™, the 73.9 kDa ExoU band is quantitated by scanning through an imager. The effects of inhibitors on the intensity of the ExoU band may be measured relative to that of untreated controls.

In turn, `O=C(N[C@@H](COCc1ccccc1)C(=O)O)c1nc(-c2ccc(Oc3ccccc3)cc2)oc1-c1ccc(Cl)nc1Cl` [Compound 37, (S)-3-Benzyloxy-2-{[5-(2,6-dichloropyridin-3-yl)-2-(4-phenoxyphenyl)oxazole-4-carbonyl]amino}propionic acid] had a pIC50 of 4.04. `O=C(NC(Cc1ccc(Cl)cc1)C(=O)O)c1nc(-c2ccc(Oc3ccccc3)cc2)oc1-c1cnc(Cl)c(Cl)c1` (centres unmarked) [Compound 41, 3-(4-Chlorophenyl)-2-{[5-(5,6-dichloropyridin-3-yl)-2-(4-phenoxyphenyl)oxazole-4-carbonyl]amino}propionic acid] showed a pIC50 of 4.29. The same measure, in the same setting: to `O=C(NC(Cc1ccc(Cl)cc1)C(=O)O)c1nc(-c2ccc(C(F)(F)F)cc2)oc1-c1cc2ccccc2o1` (centres unmarked) [Compound 42, 2-{[5-Benzofuran-2-yl-2-(4-trifluoromethylphenyl)oxazole-4-carbonyl]amino}-3-(4-chlorophenyl)propionic acid] belongs 4.57. On the same count and under the same terms, to `O=C(N[C@@H](CSCc1ccccc1)C(=O)O)c1nc(-c2ccc(-c3ccccc3)cc2)oc1-c1cnc(Cl)c(Cl)c1` [Compound 43, (R)-3-Benzylsulfanyl-2-{[2-biphenyl-4-yl-5-(5,6-dichloropyridin-3-yl)oxazole-4-carbonyl]amino}propionic acid] belongs 4.34; to `O=C(NC(Cc1ccc(Cl)cc1)C(=O)O)c1nc(-c2ccc(-c3ccccc3)cc2)oc1-c1cnc(Cl)c(Cl)c1` (centres unmarked) [Compound 45, 2-{[2-Biphenyl-4-yl-5-(5,6-dichloropyridin-3-yl)oxazole-4-carbonyl]amino}-3-(4-chlorophenyl)propionic acid], 4.29. The same measure, in the same setting: next, `Cn1cc(-c2oc(-c3ccc(C(F)(F)F)cc3)nc2C(=O)NC(Cc2ccc(Cl)cc2)C(=O)O)c2ccccc21` (centres unmarked) [Compound 48, 3-(4-Chlorophenyl)-2-{[5-(1-methyl-1H-indol-3-yl)-2-(4-trifluoromethylphenyl)oxazole-4-carbonyl]amino}propionic acid]: 4.13. On to `Cc1nc(-c2ccc(-c3oc(-c4ccc(C(F)(F)F)cc4)nc3C(=O)N[C@@H](CSCc3ccccc3)C(=O)O)cc2)no1` [Compound 51, (R)-3-Benzylsulfanyl-2-{[5-[4-(5-methyl[1,2,4]oxadiazol-3-yl)phenyl]-2-(4-trifluoromethylphenyl)oxazole-4-carbonyl]amino}propionic acid], for which the pIC50 is 4.71.

With `O=C(N[C@@H](COCc1ccccc1)C(=O)O)c1nc(-c2ccc(-c3ccsc3)cc2)oc1-c1ccc(Cl)c(Cl)c1` [Compound 52, (S)-3-Benzyloxy-2-{[5-(3,4-dichlorophenyl)-2-(4-thien-3-yl-phenyl)oxazole-4-carbonyl]amino}propionic acid], the pIC50 is 4.25. `O=C(N[C@@H](COCc1ccccc1)C(=O)O)c1nc(-c2ccc(C(F)(F)F)cc2)oc1-c1cnc2ccccc2n1` [Compound 53, (S)-3-Benzyloxy-2-{[5-quinoxalin-2-yl-2-(4-trifluoromethylphenyl)oxazole-4-carbonyl]amino}propionic acid] gave a negative logarithm of the IC50 (pIC50) of 4.19. Still for that read-out and setting: next, `O=C(NC(Cc1ccc(Cl)cc1)C(=O)O)c1nc(-c2ccc(C(F)(F)F)cc2)oc1C1CCN(c2nccc(C(F)(F)F)n2)CC1` (centres unmarked) [Compound 55, 3-(4-Chlorophenyl)-2-({2-(4-trifluoromethylphenyl)-5-[1-(4-trifluoromethylpyrimidin-2-yl)piperidin-4-yl]oxazole-4-carbonyl}amino)propionic acid]: 4.29.

`O=C(N[C@@H](CSCc1ccccc1)C(=O)O)c1nc(-c2ccc(C(F)(F)F)cc2)oc1C1CCN(c2nccc(C(F)(F)F)n2)CC1` [Compound 57, (R)-3-Benzylsulfanyl-2-({2-(4-trifluoromethylphenyl)-5-[1-(4-trifluoromethylpyrimidin-2-yl)piperidin-4-yl]oxazole-4-carbonyl}amino)propionic acid] showed a pIC50 of 4.30. This pIC50 and that of the compound before are within 0.2 log units of each other. As to `O=C(NC(Cc1ccc(Cl)cc1)C(=O)O)c1nc(-c2ccc(C(F)(F)F)cc2)oc1-c1ccc(-c2ccccc2)cc1` (centres unmarked) [Compound 59, 2-{[5-Biphenyl-4-yl-2-(4-trifluoromethylphenyl)oxazole-4-carbonyl]amino}-3-(4-chlorophenyl)propionic acid], the inhibition at 100 µM is 84.1%. Still for that read-out and setting: next, `O=C(NC(Cc1ccc(Cl)cc1)C(=O)O)c1nc(-c2ccc(-c3ccccc3)cc2)oc1-c1cccc(C(F)(F)F)c1` (centres unmarked) [Compound 60, 2-{[2-Biphenyl-4-yl-5-(3-trifluoromethylphenyl)oxazole-4-carbonyl]amino}-3-(4-chlorophenyl)propionic acid]: 90.2%.

`O=C(N[C@@H](COCc1ccccc1)C(=O)O)c1nc(-c2ccc(-c3ccccc3)cc2)oc1-c1ccc(Cl)cc1Cl` [Compound 61, (S)-3-Benzyloxy-2-{[2-biphenyl-4-yl-5-(2,4-dichlorophenyl)oxazole-4-carbonyl]amino}propionic acid] gave a pIC50 of 4.18. The compound `O=C(N[C@@H](COCc1ccccc1)C(=O)O)c1nc(-c2ccc(-c3ccccc3)cc2)oc1-c1cccc(C(F)(F)F)c1` [Compound 62, (S)-3-Benzyloxy-2-{[2-biphenyl-4-yl-5-(3-trifluoromethylphenyl)oxazole-4-carbonyl]amino}propionic acid] had a negative-log IC50 (pIC50) of 4.30. The same measure, in the same setting: next, `O=C(N[C@@H](COCc1ccccc1)C(=O)O)c1nc(-c2ccc(C(F)(F)F)cc2)oc1-c1ccc(-c2ccccc2)cc1` [Compound 63, (S)-3-Benzyloxy-2-{[5-biphenyl-4-yl-2-(4-trifluoromethylphenyl)oxazole-4-carbonyl]amino}propionic acid]: 4.43; `O=C(N[C@H](Cc1ccc(Cl)cc1)C(=O)O)c1nc(-c2cccc3ccccc23)oc1-c1ccc(C(F)(F)F)nc1` [Compound 64, (R)-3-(4-Chlorophenyl)-2-{[2-naphthalen-1-yl-5-(6-trifluoromethylpyridin-3-yl)oxazole-4-carbonyl]amino}propionic acid]: 4.29; `O=C(N[C@@H](CSCc1ccccc1)C(=O)O)c1nc(-c2cccc3ccccc23)oc1-c1ccc(C(F)(F)F)nc1` [Compound 65, (R)-3-Benzylsulfanyl-2-{[2-naphthalen-1-yl-5-(6-trifluoromethylpyridin-3-yl)oxazole-4-carbonyl]amino}propionic acid]: 4.27.

For `Cc1nc(-c2ccc(-c3oc(-c4ccc(C(F)(F)F)cc4)nc3C(=O)N[C@@H](COCc3ccccc3)C(=O)O)cc2)no1` [Compound 66, (S)-3-Benzyloxy-2-{[5-[4-(5-methyl[1,2,4]oxadiazol-3-yl)phenyl]-2-(4-trifluoromethylphenyl)oxazole-4-carbonyl]amino}propionic acid], the pIC50 was 4.90. On the same count and under the same terms, next, `Cc1nc(-c2ccc(-c3oc(-c4ccc(C(F)(F)F)cc4)nc3C(=O)N[C@H](Cc3ccc(Cl)cc3)C(=O)O)cc2)no1` [Compound 67, 3-(4-Chlorophenyl)-2-{[5-[4-(5-methyl[1,2,4]oxadiazol-3-yl)phenyl]-2-(4-trifluoromethylphenyl)oxazole-4-carbonyl]amino}propionic acid]: 4.90; `O=C(N[C@@H](COCc1ccccc1)C(=O)O)c1nc(-c2ccc(-c3ccccc3)cc2)nn1-c1ccc(Cl)c(Cl)c1` [Compound 68, (S)-3-Benzyloxy-2-{[5-biphenyl-4-yl-2-(3,4-dichlorophenyl)-2H-[1,2,4]triazole-3-carbonyl]amino}propionic acid]: 4.41.

For `O=C(NC(Cc1ccc(Cl)cc1)C(=O)O)c1nc(-c2ccc(-c3ccccc3)cc2)nn1-c1ccc(Cl)c(Cl)c1` (centres unmarked) [Compound 69, 2-{[5-Biphenyl-4-yl-2-(3,4-dichlorophenyl)-2H-[1,2,4]triazole-3-carbonyl]amino}-3-(4-chlorophenyl)propionic acid], the negative logarithm of the IC50 (pIC50) was 4.49. This pIC50 and that of the compound before are within 0.2 log units of each other. In turn, `O=C(N[C@@H](C[S+]([O-])Cc1ccccc1)C(=O)O)c1nc(-c2ccc(-c3ccccc3)cc2)nn1-c1ccc(Cl)c(Cl)c1` (stereo partly drawn) [Compound 70, (R)-2-{[5-Biphenyl-4-yl-2-(3,4-dichlorophenyl)-2H-[1,2,4]triazole-3-carbonyl]amino}-3-phenylmethanesulfinylpropionic acid] gave a negative-log IC50 (pIC50) of 4.59.

`O=C(N[C@H](COCc1ccccc1)C(=O)O)c1nc(-c2ccc(-c3ccccc3)cc2)oc1-c1cccc(C(F)(F)F)c1` [Compound 71, (R)-3-Benzyloxy-2-{[2-biphenyl-4-yl-5-(3-trifluoromethylphenyl)oxazole-4-carbonyl]amino}propionic acid] gave a pIC50 of 4.34.

Compound `O=C(N[C@H](COCc1ccccc1)C(=O)O)c1nc(-c2ccc(C(F)(F)F)cc2)oc1-c1ccc(-c2ccccc2)cc1` [Compound 72, (R)-3-Benzyloxy-2-{[5-biphenyl-4-yl-2-(4-trifluoromethylphenyl)oxazole-4-carbonyl]amino}propionic acid] gave a negative-log IC50 (pIC50) of 4.26. The pIC50 values of the last two compounds are within 0.2 log units of each other. Turning to `O=C(N[C@@H](Cc1ccc(Cl)cc1)C(=O)O)c1nc(-c2ccc(C(F)(F)F)cc2)oc1-c1ccc(-c2ccccc2)cc1` [Compound 73, (S)-2-{[5-Biphenyl-4-yl-2-(4-trifluoromethylphenyl)oxazole-4-carbonyl]amino}-3-(4-chlorophenyl)propionic acid], the pIC50 was 4.25.

Source of the values: patent US20050272784A1 (priority 2004, published 2005).
